Laboratory results from publication doi:10.1101/2024.08.14.606984v2 (biorxiv, 2024).

Molecular target: GCN2 (Homo sapiens, UniProt Q9P2K8)
Experiment: SPR, steady state
Format: binding

Sequence of GCN2 (Q9P2K8 whole entry): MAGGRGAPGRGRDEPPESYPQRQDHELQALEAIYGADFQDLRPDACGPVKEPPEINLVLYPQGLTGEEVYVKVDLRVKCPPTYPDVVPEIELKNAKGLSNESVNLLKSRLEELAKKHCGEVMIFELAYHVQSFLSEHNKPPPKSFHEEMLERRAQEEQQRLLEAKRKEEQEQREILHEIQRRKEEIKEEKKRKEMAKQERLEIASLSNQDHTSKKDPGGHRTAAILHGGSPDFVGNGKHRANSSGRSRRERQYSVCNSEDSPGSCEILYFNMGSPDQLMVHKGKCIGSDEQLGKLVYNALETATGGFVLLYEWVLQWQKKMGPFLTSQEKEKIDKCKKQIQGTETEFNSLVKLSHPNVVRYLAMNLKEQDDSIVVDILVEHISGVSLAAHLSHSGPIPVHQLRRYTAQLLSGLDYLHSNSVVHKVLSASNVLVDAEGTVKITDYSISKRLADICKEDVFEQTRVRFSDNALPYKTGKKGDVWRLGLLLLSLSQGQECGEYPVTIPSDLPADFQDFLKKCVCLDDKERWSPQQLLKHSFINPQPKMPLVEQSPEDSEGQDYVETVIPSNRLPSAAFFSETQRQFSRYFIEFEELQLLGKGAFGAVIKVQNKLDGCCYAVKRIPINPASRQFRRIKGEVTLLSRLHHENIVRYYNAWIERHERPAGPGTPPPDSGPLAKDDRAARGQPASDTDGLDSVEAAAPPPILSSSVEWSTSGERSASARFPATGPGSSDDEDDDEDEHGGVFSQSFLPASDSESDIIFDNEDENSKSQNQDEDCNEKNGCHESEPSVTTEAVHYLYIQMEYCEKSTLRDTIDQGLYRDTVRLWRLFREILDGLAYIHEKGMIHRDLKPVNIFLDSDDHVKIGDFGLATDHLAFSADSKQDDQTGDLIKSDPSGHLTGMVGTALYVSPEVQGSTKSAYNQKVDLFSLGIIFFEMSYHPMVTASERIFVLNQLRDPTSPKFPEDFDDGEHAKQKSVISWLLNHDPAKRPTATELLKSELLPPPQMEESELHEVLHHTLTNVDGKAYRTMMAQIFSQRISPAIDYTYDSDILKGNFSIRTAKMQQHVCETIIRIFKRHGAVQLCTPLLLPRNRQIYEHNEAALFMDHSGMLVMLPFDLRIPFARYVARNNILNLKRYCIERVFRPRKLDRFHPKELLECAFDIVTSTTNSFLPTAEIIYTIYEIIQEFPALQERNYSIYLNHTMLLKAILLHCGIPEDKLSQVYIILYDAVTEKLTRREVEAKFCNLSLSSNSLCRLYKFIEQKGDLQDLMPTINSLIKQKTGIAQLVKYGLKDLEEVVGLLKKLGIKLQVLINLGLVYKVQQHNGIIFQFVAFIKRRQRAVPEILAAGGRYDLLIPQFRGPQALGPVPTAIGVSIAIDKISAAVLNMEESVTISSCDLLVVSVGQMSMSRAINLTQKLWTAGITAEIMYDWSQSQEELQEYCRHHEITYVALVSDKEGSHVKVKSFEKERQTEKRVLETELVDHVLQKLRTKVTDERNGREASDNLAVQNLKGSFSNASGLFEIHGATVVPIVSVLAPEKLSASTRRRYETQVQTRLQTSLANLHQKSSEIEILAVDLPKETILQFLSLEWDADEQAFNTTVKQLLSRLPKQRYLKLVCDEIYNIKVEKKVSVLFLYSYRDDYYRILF

- Kd: 43.1 ± 2.5 µM
Structure (SMILES): CNc1ncc2cc(-c3cc(NC(=O)NCCC(C)(C)C)c(F)cc3C)c(C)nc2n1 [LY-3009120]
